Test results reported in ChEMBL document CHEMBL3046482, “Facile synthesis of furoquinoline and effects on radical-induced oxidation of DNA” (Med Chem Res, 2013).
Calls of active or inactive are those of the source. The calls are words filed in the database; no cut-off is given here.

Columns and labels:
Type in all cases: functional
[1] = Antioxidant activity assessed as decrease in AAPH-induced oxidation of DNA measured TBARS production at 100 to 400 uM after 15 min by spectrophotometric analysis
[2] = Antioxidant activity assessed as decrease in hydroxyl radical-induced oxidation of DNA measured TBARS production at 400 uM after 30 min by spectrophotometric analysis relative to control; parameters: scale not given: the % may be the effect or the level left
[3] = Antioxidant activity assessed as decrease in Cu2+/GSH-induced oxidation of DNA measured TBARS production at 400 uM after 90 min by spectrophotometric analysis relative to control; parameters: scale not given: the % may be the effect or the level left
[4] = Antioxidant activity assessed as decrease in AAPH-induced oxidation of DNA measured TBARS production at 400 uM after 15 min by spectrophotometric analysis

SMILES | Activity [1] | Activity [2] | Activity [3] | Activity [4]
Cc1c2c(nc3cc(O)ccc13)OCC2 | Active | 95.1% | 93.5% | 
Cc1c2c(nc3ccc(O)cc13)OCC2 |  | 88.4% | 92.9% | 
Cc1c2c(nc3ccccc13)OCC2 |  | 95.1% | 96.6% | inactive
Cc1c2c(nc3c(O)cccc13)OCC2 |  | 90.8% | 92.2% | 
